This is an account of results in ChEMBL document CHEMBL1147178, “Novel thiol-based TACE inhibitors: rational design, synthesis, and SAR of thiol-containing aryl sulfonamides” (Bioorg Med Chem Lett, 2007).

Structures are written as SMILES.

Assay [1] concerns the target Collagenase 3 (Homo sapiens, UniProt P45452). Briefly: Inhibition of MMP13.
Assay [2] concerns the target 72 kDa type IV collagenase (Homo sapiens, UniProt P08253). In words: Inhibition of MMP2.
Assay [3] concerns the target Disintegrin and metalloproteinase domain-containing protein 17 (Homo sapiens, UniProt P78536). In words: Inhibition of TNF-alpha converting enzyme.
The target in assay [4] is T1, Matrilysin (Homo sapiens, UniProt P09237).
T1 sequence (P09237 whole entry): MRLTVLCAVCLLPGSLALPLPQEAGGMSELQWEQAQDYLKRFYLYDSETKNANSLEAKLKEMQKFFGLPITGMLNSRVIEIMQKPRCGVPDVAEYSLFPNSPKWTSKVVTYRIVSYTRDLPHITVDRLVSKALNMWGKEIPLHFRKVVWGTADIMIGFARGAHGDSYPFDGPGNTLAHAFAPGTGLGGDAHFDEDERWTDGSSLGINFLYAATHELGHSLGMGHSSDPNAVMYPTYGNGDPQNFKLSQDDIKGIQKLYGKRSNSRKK
Briefly: Inhibition of MMP7.

Assay [5] concerns the target Neutrophil collagenase (Homo sapiens, UniProt P22894). Briefly: Inhibition of MMP8.
Assay [6] addresses Matrix metalloproteinase-9 (Homo sapiens, UniProt P14780). In words: Inhibition of MMP9.

Disintegrin and metalloproteinase domain-containing protein 17, sequence (P78536 whole entry, the tested form may be a part): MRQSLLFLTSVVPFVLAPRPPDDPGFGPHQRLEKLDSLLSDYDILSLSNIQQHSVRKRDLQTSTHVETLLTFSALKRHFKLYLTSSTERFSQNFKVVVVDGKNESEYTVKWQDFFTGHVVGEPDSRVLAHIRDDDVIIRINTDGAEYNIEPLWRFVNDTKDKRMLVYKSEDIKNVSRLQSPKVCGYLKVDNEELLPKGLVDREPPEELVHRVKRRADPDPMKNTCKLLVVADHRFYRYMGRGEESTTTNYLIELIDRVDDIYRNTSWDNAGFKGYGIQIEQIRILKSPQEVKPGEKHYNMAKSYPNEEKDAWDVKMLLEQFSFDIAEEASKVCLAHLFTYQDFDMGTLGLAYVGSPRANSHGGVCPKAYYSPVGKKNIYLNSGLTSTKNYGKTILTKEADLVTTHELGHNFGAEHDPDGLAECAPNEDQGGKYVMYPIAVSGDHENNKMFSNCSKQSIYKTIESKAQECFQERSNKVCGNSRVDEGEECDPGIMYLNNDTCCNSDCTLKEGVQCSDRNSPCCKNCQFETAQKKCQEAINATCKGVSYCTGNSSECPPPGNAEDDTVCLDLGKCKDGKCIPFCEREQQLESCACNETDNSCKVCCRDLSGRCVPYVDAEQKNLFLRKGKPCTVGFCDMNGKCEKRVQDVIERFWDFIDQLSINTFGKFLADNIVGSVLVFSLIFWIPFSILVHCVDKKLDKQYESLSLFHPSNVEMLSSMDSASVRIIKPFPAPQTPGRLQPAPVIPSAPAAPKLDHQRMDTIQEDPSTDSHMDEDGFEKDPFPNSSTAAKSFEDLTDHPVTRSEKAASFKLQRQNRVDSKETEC
72 kDa type IV collagenase, sequence (P08253 whole entry, the tested form may be a part): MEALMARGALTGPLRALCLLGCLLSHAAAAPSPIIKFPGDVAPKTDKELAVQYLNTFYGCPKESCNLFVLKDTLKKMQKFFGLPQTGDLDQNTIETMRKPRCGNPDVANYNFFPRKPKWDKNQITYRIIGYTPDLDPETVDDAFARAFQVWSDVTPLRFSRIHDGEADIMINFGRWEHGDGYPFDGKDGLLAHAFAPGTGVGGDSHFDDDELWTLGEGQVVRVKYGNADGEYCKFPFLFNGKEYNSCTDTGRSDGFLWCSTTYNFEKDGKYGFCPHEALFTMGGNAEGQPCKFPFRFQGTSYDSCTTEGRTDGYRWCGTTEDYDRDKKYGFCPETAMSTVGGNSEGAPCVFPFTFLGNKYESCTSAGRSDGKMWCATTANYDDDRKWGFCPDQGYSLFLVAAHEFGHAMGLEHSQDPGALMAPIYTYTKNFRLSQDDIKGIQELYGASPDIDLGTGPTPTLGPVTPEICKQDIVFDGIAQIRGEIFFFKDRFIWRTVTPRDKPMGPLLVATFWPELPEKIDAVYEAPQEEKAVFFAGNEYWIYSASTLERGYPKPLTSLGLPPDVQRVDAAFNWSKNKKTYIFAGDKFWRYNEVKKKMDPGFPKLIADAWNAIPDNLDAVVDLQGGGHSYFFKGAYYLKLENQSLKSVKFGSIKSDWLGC
Neutrophil collagenase, sequence (P22894 whole entry): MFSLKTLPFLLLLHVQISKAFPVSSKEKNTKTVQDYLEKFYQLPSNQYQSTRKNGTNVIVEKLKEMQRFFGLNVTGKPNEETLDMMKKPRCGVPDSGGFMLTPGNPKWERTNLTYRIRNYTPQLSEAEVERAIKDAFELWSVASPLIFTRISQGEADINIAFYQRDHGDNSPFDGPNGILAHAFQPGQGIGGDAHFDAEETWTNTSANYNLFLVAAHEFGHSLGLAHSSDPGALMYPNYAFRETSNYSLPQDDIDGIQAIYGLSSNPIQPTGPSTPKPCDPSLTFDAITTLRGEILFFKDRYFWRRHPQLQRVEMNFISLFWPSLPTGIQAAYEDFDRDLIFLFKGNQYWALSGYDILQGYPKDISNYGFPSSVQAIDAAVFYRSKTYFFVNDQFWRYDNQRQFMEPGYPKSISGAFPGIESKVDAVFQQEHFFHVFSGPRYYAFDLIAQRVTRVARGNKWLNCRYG
Matrix metalloproteinase-9, sequence (P14780 whole entry, looked up): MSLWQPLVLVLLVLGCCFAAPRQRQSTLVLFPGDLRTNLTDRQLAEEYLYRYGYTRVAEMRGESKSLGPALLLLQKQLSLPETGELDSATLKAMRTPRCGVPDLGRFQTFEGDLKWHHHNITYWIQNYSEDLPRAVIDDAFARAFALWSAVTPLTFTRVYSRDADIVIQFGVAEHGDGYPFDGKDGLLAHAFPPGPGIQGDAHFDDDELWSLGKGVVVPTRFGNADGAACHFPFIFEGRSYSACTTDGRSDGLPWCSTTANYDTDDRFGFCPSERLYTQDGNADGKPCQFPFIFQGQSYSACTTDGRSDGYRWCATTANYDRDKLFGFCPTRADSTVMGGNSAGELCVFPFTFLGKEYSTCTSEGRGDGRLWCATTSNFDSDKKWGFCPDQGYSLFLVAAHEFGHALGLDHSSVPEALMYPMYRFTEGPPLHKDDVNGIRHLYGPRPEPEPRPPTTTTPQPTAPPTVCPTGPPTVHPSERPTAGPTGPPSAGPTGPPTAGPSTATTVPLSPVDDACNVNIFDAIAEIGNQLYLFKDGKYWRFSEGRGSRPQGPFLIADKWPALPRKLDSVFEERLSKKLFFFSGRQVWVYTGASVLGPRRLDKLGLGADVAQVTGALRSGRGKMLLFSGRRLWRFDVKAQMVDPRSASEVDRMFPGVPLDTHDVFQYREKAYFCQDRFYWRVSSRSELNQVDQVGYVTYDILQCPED

`CC#CCOc1ccc(S(=O)(=O)N2CCCC(S)C2)cc1` (racemic): the Ki (commonly a measure of affinity in units of concentration, obtained from inhibition or displacement) in assay [1] was 700 nM; in assay [2], above 3000 nM; in assay [3], 55 nM; in assay [4], above 3000 nM.

Turning to `CN1CCN(CC#CCOc2ccc(S(=O)(=O)N3CC[C@@H](S)C3)cc2)CC1`, the Ki in assay [3] turned out to be 3400 nM.

As for `CC#CCOc1ccc(S(=O)(=O)N(C)CC(=O)NO)cc1`, the Ki was 17 nM in assay [1], 27 nM in assay [2], 10 nM in assay [3] and 3400 nM in assay [4].

`CC#CCNc1ccc(S(=O)(=O)N2CC(S)C2)cc1` showed a Ki in assay [3] of 11 nM.

In the case of `CC#CCOc1ccc(S(=O)(=O)N(C)CCS)cc1`, the Ki in assay [1] was 2000 nM; in assay [5], 1300 nM; in assay [2], 5700 nM; in assay [3] it was 52 nM; in assay [6], 200 nM; in assay [4], 33000 nM.

Turning to `CC#CCOc1ccc(S(=O)(=O)N2CC(S)C2)cc1`, the affinity in assay [3] corresponds to a Ki of 13 nM.

Consider `O=S(=O)(c1ccc(OCC#CCN2CCCCC2)cc1)N1CC[C@@H](S)C1`, for which, in assay [3], the Ki is 530 nM.

`CC#CCOc1ccc(S(=O)(=O)N(C)C[C@H](C)S)cc1`: the affinity in assay [3] corresponds to a Ki of 27 nM.

Consider `CC#CCOc1ccc(S(=O)(=O)N2CC[C@@H](S)C2)cc1`, for which the Ki in assay [1] is 1200 nM; in assay [2], 5000 nM; in assay [4] it was above 6000 nM.

`CC#CCNc1ccc(S(=O)(=O)N2CC[C@@H](S)C2)cc1` registered a Ki in assay [3] of 5 nM.
